Experimental data published in patent publication US6495133B1, “Gliocladium roseum strains useful for the control of fungal pathogens in plants” (priority 1998, dated 2002).

What was measured:
Type in all cases: in vivo
[1] = system: Rhizoctonia solani; assay: Control of rhizoctonia root rot, growth room experiments
[2] = system: Fusarium oxysporium; assay: Control of fusarium wilt in field pea, field experiments
[3] = system: Rhizoctonia solani; assay: Control of rhizoctonia root rot in field pea, field experiments
[4] = Brussel Sprouts (cv. Long Island)
[5] = Cauliflower (cv. Early Snowball)
[6] = Egg Plant (cv. Early Long Purple)

For `CN(C)C(=S)SSC(=S)N(C)C` [Thiram, thiram], the Dry wt. ([1]; Broccoli (cv. Green Sprouting)) was 0.01 a g/plant, the Emergence ([1]; Broccoli (cv. Green Sprouting)) was 34.0 a % and the Fresh wt. ([1]; Broccoli (cv. Green Sprouting)) was 0.1 a g/plant. For the same compound, the Root/foot rot severity ([1]; Broccoli (cv. Green Sprouting)) was 5.1 ab 0-9, the Dry wt. [1, 4] was 0.02 a g/plant and the Emergence [1, 4] was 19.5 b %. For the same compound, the Fresh wt. [1, 4] was 0.2 ab g/plant, the Root/foot rot severity [1, 4] was 2.8 a 0-9 and the Dry wt. ([1]; Cabbage (cv. Golden Acre)) was 0.01 a g/plant. It also gave an Emergence ([1]; Cabbage (cv. Golden Acre)) of 59.5 a %, a Fresh wt. ([1]; Cabbage (cv. Golden Acre)) of 0.2 a g/plant and a Root/foot rot severity ([1]; Cabbage (cv. Golden Acre)) of 2.9 b 0-9. The Dry wt. [1, 5] was 0.01 a g/plant, the Emergence [1, 5] was 11.5 b % and the Fresh wt. [1, 5] was 0.1 a g/plant. The Root/foot rot severity [1, 5] was 4.0 a 0-9, the Dry wt. ([1]; Cucumber (cv. Imp. Long Green)) was 0.06 a g/plant and the Emergence ([1]; Cucumber (cv. Imp. Long Green)) was 49.0 b %. It also gave a Fresh wt. ([1]; Cucumber (cv. Imp. Long Green)) of 0.5 a g/plant, a Root/foot rot severity ([1]; Cucumber (cv. Imp. Long Green)) of 2.2 b 0-9 and a Dry wt. [1, 6] of 0.01 a g/plant. For the same compound, the Emergence [1, 6] was 79.3 a %, the Fresh wt. [1, 6] was 0.1 a g/plant and the Root/foot rot severity [1, 6] was 1.9 a 0-9. The Dry wt. ([1]; Field pea (cv. Radley)) was 0.27 a g/plant, the Emergence ([1]; Field pea (cv. Radley)) was 55.6 a % and the Fresh wt. ([1]; Field pea (cv. Radley)) was 2.4 a g/plant. The Root/foot rot severity ([1]; Field pea (cv. Radley)) was 3.4 a 0-9, the Dry wt. ([1]; Garden Pea (cv. Green Arrow)) was 0.15 a g/plant and the Emergence ([1]; Garden Pea (cv. Green Arrow)) was 89.2 a %. For the same compound, the Fresh wt. ([1]; Garden Pea (cv. Green Arrow)) was 1.3 a g/plant, the Root/foot rot severity ([1]; Garden Pea (cv. Green Arrow)) was 2.1 b 0-9 and the Dry wt. ([1]; Marigold (cv. Lemondrop)) was 0.06 a g/plant. It also gave an Emergence ([1]; Marigold (cv. Lemondrop)) of 75.2 a %, a Fresh wt. ([1]; Marigold (cv. Lemondrop)) of 0.5 a g/plant and a Root/foot rot severity ([1]; Marigold (cv. Lemondrop)) of 2.1 a 0-9. It also gave a Dry wt. ([1]; Pepper (cv. California Wonder)) of 0.01 a g/plant, an Emergence ([1]; Pepper (cv. California Wonder)) of 70.5 b % and a Fresh wt. ([1]; Pepper (cv. California Wonder)) of 0.1 a g/plant. The Root/foot rot severity ([1]; Pepper (cv. California Wonder)) was 1.3 a 0-9, the Dry wt. ([1]; Sugar beet (cv. US H2O)) was 0.29 a g/plant and the Emergence ([1]; Sugar beet (cv. US H2O)) was 57.5 a %. For the same compound, the Fresh wt. ([1]; Sugar beet (cv. US H2O)) was 4.4 a g/plant, the Root/foot rot severity ([1]; Sugar beet (cv. US H2O)) was 1.6 b 0-9 and the Dry wt. ([1]; Table beet (cv. Ruby Queen)) was 0.01 a g/plant. For the same compound, the Emergence ([1]; Table beet (cv. Ruby Queen)) was 78.5 a %, the Fresh wt. ([1]; Table beet (cv. Ruby Queen)) was 0.1 a g/plant and the Root/foot rot severity ([1]; Table beet (cv. Ruby Queen)) was 2.3 b 0-9. For the same compound, the Dry wt. ([1]; Tomato (cv. Bush Beefsteak)) was 0.01 a g/plant, the Emergence ([1]; Tomato (cv. Bush Beefsteak)) was 87.8 a % and the Fresh wt. ([1]; Tomato (cv. Bush Beefsteak)) was 0.1 a g/plant. It also gave a Root/foot rot severity ([1]; Tomato (cv. Bush Beefsteak)) of 1.5 a 0-9, an Emergence ([2]; 1996, AC Tamor) of 78.3 a and a Yield ([2]; 1996, AC Tamor) of 5203 a. It also gave an Emergence ([2]; 1996, Radley) of 85.9 ab, a Yield ([2]; 1996, Radley) of 2442 a and an Emergence ([2]; 1997, AC Tamor) of 84.0 a. The Yield ([2]; 1997, AC Tamor) was 6625 a, the Emergence ([2]; 1997, Radley) was 63.8 ab and the Yield ([2]; 1997, Radley) was 5037 b. The Emergence ([3]; 1996, AC Tamor) was 45.5 a, the Yield ([3]; 1996, AC Tamor) was 2497 a and the Emergence ([3]; 1996, Radley) was 47.4 a. For the same compound, the Yield ([3]; 1996, Radley) was 1589 a, the “increased emergence by” value ([3]; 1996, average of two varieties) was 2% and the “reduced yield by” value ([3]; 1996, average of two varieties) was 12.5%. For the same compound, the effect on emergence [3]; 1997 was “increased emergence significantly”, the effect on yield [3]; 1997 was “did not increase the yield” and the Emergence ([3]; 1997, AC Tamor) was 76.0 a. It also gave a Yield ([3]; 1997, AC Tamor) of 5367 a, an Emergence ([3]; 1997, Radley) of 58.6 b and a Yield ([3]; 1997, Radley) of 4666 a.
